Measurements: PubChem BioAssay (NCI)
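Grown in 96-well plates, cells were treated for 48 hours with each compound at five concentrations. Insufficient inhibition: endpoint recorded as highest concentration tested. TGI marks complete inhibition of growth.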

Columns and labels:
Test in all cases: growth of human tumour cells (NCI), 48 h
HCT-15 colon = test system: HCT-15 colon
UACC-257 melanoma = test system: UACC-257 melanoma
CCRF-CEM leukemia = test system: CCRF-CEM leukemia
SK-MEL-28 melanoma = test system: SK-MEL-28 melanoma
NCI/ADR-RES ovarian = test system: NCI/ADR-RES ovarian
HT29 colon = test system: HT29 colon
SK-MEL-5 melanoma = test system: SK-MEL-5 melanoma
M14 melanoma = test system: M14 melanoma
MDA-MB-231 breast = test system: MDA-MB-231 breast
K-562 leukemia = test system: K-562 leukemia
TK-10 renal = test system: TK-10 renal
MDA-MB-435 = test system: MDA-MB-435
MDA-N = test system: MDA-N
OVCAR-8 ovarian = test system: OVCAR-8 ovarian
SNB-75 CNS = test system: SNB-75 CNS
LOX IMVI melanoma = test system: LOX IMVI melanoma
A549 NSCLC = test system: A549 NSCLC
HOP-92 NSCLC = test system: HOP-92 NSCLC
SN12C renal = test system: SN12C renal
ACHN renal = test system: ACHN renal
KM12 colon = test system: KM12 colon
MALME-3M melanoma = test system: MALME-3M melanoma
HCC-2998 colon = test system: HCC-2998 colon
NCI-H226 lung = test system: NCI-H226 lung
RXF 393 renal = test system: RXF 393 renal
OVCAR-5 ovarian = test system: OVCAR-5 ovarian
IGROV1 ovarian = test system: IGROV1 ovarian
HCT-116 colon = test system: HCT-116 colon
HOP-62 NSCLC = test system: HOP-62 NSCLC
COLO 205 colon = test system: COLO 205 colon
MCF7 breast = test system: MCF7 breast
DU-145 prostate = test system: DU-145 prostate
786-0 renal = test system: 786-0 renal
A498 renal = test system: A498 renal
PC-3 prostate = test system: PC-3 prostate
NCI-H522 lung = test system: NCI-H522 lung
U251 CNS = test system: U251 CNS
SNB-19 CNS = test system: SNB-19 CNS
SK-MEL-2 melanoma = test system: SK-MEL-2 melanoma
UO-31 renal = test system: UO-31 renal
HL-60(TB) leukemia = test system: HL-60(TB) leukemia
RPMI-8226 leukemia = test system: RPMI-8226 leukemia
NCI-H23 lung = test system: NCI-H23 lung
SK-OV-3 ovarian = test system: SK-OV-3 ovarian
EKVX NSCLC = test system: EKVX NSCLC
SW-620 colon = test system: SW-620 colon
OVCAR-4 ovarian = test system: OVCAR-4 ovarian
T-47D breast = test system: T-47D breast
SF-295 CNS = test system: SF-295 CNS
SF-539 CNS = test system: SF-539 CNS
OVCAR-3 ovarian = test system: OVCAR-3 ovarian
MOLT-4 leukemia = test system: MOLT-4 leukemia
CAKI-1 renal = test system: CAKI-1 renal
UACC-62 melanoma = test system: UACC-62 melanoma
SF-268 CNS = test system: SF-268 CNS
HS 578T breast = test system: HS 578T breast
NCI-H460 lung = test system: NCI-H460 lung
SR leukemia = test system: SR leukemia

SMILES: [O-][N+]1=C(c2ccccc2)/C(=C2/C(c3ccccc3)=[N+]([O-])c3ccccc32)Cc2ccccc21
- TGI (HCT-15 colon): 36.7 µM
- TGI (UACC-257 melanoma): 40.9 µM
- TGI (CCRF-CEM leukemia): 60.1 µM
- TGI (SK-MEL-28 melanoma): 46.2 µM
- TGI (NCI/ADR-RES ovarian): 34.4 µM
- TGI (HT29 colon): 35.9 µM
- TGI (SK-MEL-5 melanoma): 35.4 µM
- TGI (M14 melanoma): 53.7 µM
- TGI (MDA-MB-231 breast): 33.5 µM
- TGI (K-562 leukemia): 58.1 µM
- TGI (TK-10 renal): 49.2 µM
- TGI (MDA-MB-435): 55.1 µM
- TGI (MDA-N): 31.7 µM
- TGI (OVCAR-8 ovarian): 35.6 µM
- TGI (SNB-75 CNS): 47.1 µM
- TGI (LOX IMVI melanoma): 34.5 µM
- TGI (A549 NSCLC): 35.2 µM
- TGI (HOP-92 NSCLC): 32.9 µM
- TGI (SN12C renal): 32.4 µM
- TGI (ACHN renal): 50.6 µM
- TGI (KM12 colon): 33.9 µM
- TGI (MALME-3M melanoma): 40.8 µM
- TGI (HCC-2998 colon): 29.5 µM
- TGI (NCI-H226 lung): 42.2 µM
- TGI (RXF 393 renal): 53.1 µM
- TGI (OVCAR-5 ovarian): > 100 µM
- TGI (IGROV1 ovarian): 35.2 µM
- TGI (HCT-116 colon): 31.4 µM
- TGI (HOP-62 NSCLC): > 100 µM
- TGI (COLO 205 colon): 34.7 µM
- TGI (MCF7 breast): > 100 µM
- TGI (DU-145 prostate): 63.8 µM
- TGI (786-0 renal): 34.9 µM
- TGI (A498 renal): 21.1 µM
- TGI (PC-3 prostate): 34.9 µM
- TGI (NCI-H522 lung): 30.5 µM
- TGI (U251 CNS): 38.7 µM
- TGI (SNB-19 CNS): 44.3 µM
- TGI (SK-MEL-2 melanoma): 36.6 µM
- TGI (UO-31 renal): 28.5 µM
- TGI (HL-60(TB) leukemia): > 100 µM
- TGI (RPMI-8226 leukemia): 52 µM
- TGI (NCI-H23 lung): 34.7 µM
- TGI (SK-OV-3 ovarian): > 100 µM
- TGI (EKVX NSCLC): 48.5 µM
- TGI (SW-620 colon): 59.2 µM
- TGI (OVCAR-4 ovarian): 38.9 µM
- TGI (T-47D breast): 45.8 µM
- TGI (SF-295 CNS): 42.9 µM
- TGI (SF-539 CNS): 56.4 µM
- TGI (OVCAR-3 ovarian): 38.1 µM
- TGI (MOLT-4 leukemia): 54.3 µM
- TGI (CAKI-1 renal): 47.4 µM
- TGI (UACC-62 melanoma): 28.7 µM

SMILES: CN(CCCNC(=O)c1cn(C)c2c1ccc1ccccc12)CCCNC(=O)c1cn(C)c2c1ccc1ccccc12
- TGI (HCT-15 colon): 3.38 µM
- TGI (UACC-257 melanoma): 3.06 µM
- TGI (CCRF-CEM leukemia): > 100 µM
- TGI (SK-MEL-28 melanoma): 3.67 µM
- TGI (NCI/ADR-RES ovarian): 3.34 µM
- TGI (HT29 colon): 2.89 µM
- TGI (SK-MEL-5 melanoma): 3.33 µM
- TGI (M14 melanoma): 2.92 µM
- TGI (MDA-N): 2.76 µM
- TGI (A549 NSCLC): 2.62 µM
- TGI (HOP-92 NSCLC): 3.57 µM
- TGI (SN12C renal): 2.71 µM
- TGI (ACHN renal): 3.33 µM
- TGI (KM12 colon): 2.96 µM
- TGI (HCC-2998 colon): 2.7 µM
- TGI (NCI-H226 lung): 12 µM
- TGI (IGROV1 ovarian): 2.31 µM
- TGI (SF-268 CNS): 3.05 µM
- TGI (HCT-116 colon): 3.12 µM
- TGI (HOP-62 NSCLC): 2.95 µM
- TGI (COLO 205 colon): 5.07 µM
- TGI (DU-145 prostate): 3.08 µM
- TGI (786-0 renal): 4.5 µM
- TGI (A498 renal): 47.9 µM
- TGI (PC-3 prostate): 2.83 µM
- TGI (SNB-19 CNS): 5.65 µM
- TGI (UO-31 renal): 2.75 µM
- TGI (HS 578T breast): 3.19 µM
- TGI (NCI-H460 lung): 2.83 µM
- TGI (NCI-H23 lung): 2.95 µM
- TGI (EKVX NSCLC): 3.42 µM
- TGI (SW-620 colon): 6.41 µM
- TGI (OVCAR-4 ovarian): 27.3 µM
- TGI (SF-295 CNS): 16.8 µM
- TGI (OVCAR-3 ovarian): 2.84 µM
- TGI (CAKI-1 renal): 2.87 µM
- TGI (UACC-62 melanoma): 4.68 µM

SMILES: O=C(O)C1C2C=CC(O2)C1C(=O)NCc1ccncc1 (centres undefined)
- TGI (UACC-257 melanoma): > 100 µM
- TGI (CCRF-CEM leukemia): > 100 µM
- TGI (SK-MEL-28 melanoma): > 100 µM
- TGI (HT29 colon): > 100 µM
- TGI (SK-MEL-5 melanoma): > 100 µM
- TGI (M14 melanoma): > 100 µM
- TGI (MDA-MB-231 breast): > 100 µM
- TGI (K-562 leukemia): > 100 µM
- TGI (TK-10 renal): > 100 µM
- TGI (MDA-MB-435): > 100 µM
- TGI (MDA-N): > 100 µM
- TGI (OVCAR-8 ovarian): > 100 µM
- TGI (SNB-75 CNS): > 100 µM
- TGI (LOX IMVI melanoma): > 100 µM
- TGI (A549 NSCLC): > 100 µM
- TGI (HOP-92 NSCLC): > 100 µM
- TGI (SN12C renal): > 100 µM
- TGI (ACHN renal): > 100 µM
- TGI (KM12 colon): > 100 µM
- TGI (MALME-3M melanoma): > 100 µM
- TGI (NCI-H226 lung): > 100 µM
- TGI (RXF 393 renal): > 100 µM
- TGI (OVCAR-5 ovarian): > 100 µM
- TGI (IGROV1 ovarian): > 100 µM
- TGI (SF-268 CNS): > 100 µM
- TGI (HCT-116 colon): > 100 µM
- TGI (HOP-62 NSCLC): > 100 µM
- TGI (COLO 205 colon): > 100 µM
- TGI (MCF7 breast): > 100 µM
- TGI (DU-145 prostate): > 100 µM
- TGI (786-0 renal): > 100 µM
- TGI (A498 renal): > 100 µM
- TGI (PC-3 prostate): > 100 µM
- TGI (NCI-H522 lung): > 100 µM
- TGI (U251 CNS): > 100 µM
- TGI (SNB-19 CNS): > 100 µM
- TGI (SK-MEL-2 melanoma): > 100 µM
- TGI (UO-31 renal): > 100 µM
- TGI (HS 578T breast): > 100 µM
- TGI (SR leukemia): > 100 µM
- TGI (NCI-H460 lung): > 100 µM
- TGI (HL-60(TB) leukemia): > 100 µM
- TGI (RPMI-8226 leukemia): > 100 µM
- TGI (SK-OV-3 ovarian): > 100 µM
- TGI (EKVX NSCLC): > 100 µM
- TGI (SW-620 colon): > 100 µM
- TGI (OVCAR-4 ovarian): > 100 µM
- TGI (T-47D breast): > 100 µM
- TGI (SF-295 CNS): > 100 µM
- TGI (SF-539 CNS): > 100 µM
- TGI (OVCAR-3 ovarian): > 100 µM
- TGI (CAKI-1 renal): > 100 µM
- TGI (UACC-62 melanoma): > 100 µM
